# Experiments:
# iNOS = assay: Intracellular iNOS expression, cell-based ELISA; format: in vivo, mouse; settings: macrophages from treated animals vs diabetic animals; FIG. 5A
# Method: Cell incubation and determination of pro-inflamatory mediators. Resident peritoneal cells (PC), spleen mononuclear cells (SMNC), and pancreatic islets were isolated from individual anti-MIF IgG-treated, ISO-1-treated or control diabetic mice on day 15 after the first injection of STZ, as well as from normal untreated animals. […] Concentration of bioactive TNF-α in culture supernatant was determined as previously described (22) using a cytolytic bioassay with actinomycin D-treated fibrosarcoma cell line L929. Nitrite accumulation, an indicator of NO production, was determined in cell culture supernatant using the Griess reaction (22). The expression of intracellular MIF, IFN-γ, MHC II, or iNOS was determined by slight modification of cell-based ELISA protocol (23). […] After washing, the cells were incubated for 1 h with the corresponding secondary antibody (goat anti-rabbit Ig(H+L)-HRP, goat anti-rat Ig(H+L)-HRP or goat anti-mouse Ig(F(ab′)2-specific)-HRP washed again and incubated for 15 min at room temperature in dark with 50 μl of a solution containing 0.4 mg/ml OPD (Sigma), 11.8 mg/ml Na2HPO4×2H2O, 7.3 mg/ml citric acid and 0.015% H2O2. The reaction was stopped with 3N HCl, and the absorbance was measured in a microplate reader at 492 nm in a Titertek microplate reader (Flow).
# [1] = system: pancreatic islets of MLD-STZ diabetic mice; assay: Histological examination of pancreas, insulitis score; format: in vivo, mouse; settings: CBA/H mice; day 15; FIG. 2D
# Method: Histological and immunohistochemical examination of pancreas. Pancreata were fixed in neutral buffered formalin and then embedded in paraffin. The fixed blocks were sectioned (7 μm thick) and haematoxylin and eosin staining was performed to assess the incidence and degree of inflammatory changes. Insulitis scoring was performed as previously described (10, 11) by examining at least 15 islets per mouse and graded in a blinded fashion as follows: 0, no infiltrate; 1, peri-ductal infiltrate; 2, peri-islet infiltrate; 3, intraislet infiltrate; and 4, intraislet infiltrate associated with β-cell destruction. At least 15 islets were counted for each mouse. A mean score for each pancreas was calculated by dividing the total score by the number of islets examined. Insulitis scores (IS) are expressed as mean values±SD. Immunohistochemistry was performed on paraffin-embedded sections of formalin-fixed tissue using a previously described microwave-based method (24). For MIF immunostaining, a polyclonal rabbit anti-MIF IgG and control rabbit IgG were used. The examined area of the islet was outlined, and the percentage of MIF-positive islet cells was measured using quantitative Image Analysis System (Optima 6.5, Media Cybernatics, Silver Springs, Md.).
# MIF tautomerase = biological target: T1, MIF tautomerase (Homo sapiens, UniProt P14174); settings: reference (20); cited from earlier work
# T1 sequence (P14174 2-115 limits assumed): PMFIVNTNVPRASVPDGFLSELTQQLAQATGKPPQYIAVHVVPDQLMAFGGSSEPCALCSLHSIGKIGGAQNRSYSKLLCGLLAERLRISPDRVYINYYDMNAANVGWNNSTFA
# TNF-α = assay: Ex vivo TNF-α production, L929 cytolytic bioassay of culture supernatants; format: in vivo, mouse; settings: day 15, 48 h culture, FIG. 4
# Method: Cell incubation and determination of pro-inflamatory mediators. Resident peritoneal cells (PC), spleen mononuclear cells (SMNC), and pancreatic islets were isolated from individual anti-MIF IgG-treated, ISO-1-treated or control diabetic mice on day 15 after the first injection of STZ, as well as from normal untreated animals. SMNC (5×10^6/well) prepared by Ficoll gradient centrifugation, resident PC (2.5×10^5/well) collected by peritoneal lavage with cold PBS, or pancreatic islets (150-200 islets/well) prepared by collagenase digestion and density gradient purification as described (22), were incubated in 24-well Limbro culture plates in 1 ml of RPMI-1640 culture medium containing 5% fetal bovine serum (FBS) and cell supernatants were collected after 48 h. Concentration of bioactive TNF-α in culture supernatant was determined as previously described (22) using a cytolytic bioassay with actinomycin D-treated fibrosarcoma cell line L929. Nitrite accumulation, an indicator of NO production, was determined in cell culture supernatant using the Griess reaction (22). The expression of intracellular MIF, IFN-γ, MHC II, or iNOS was determined by slight modification of cell-based ELISA protocol (23). Spleen MNC (5×10^5/well) or PC (2.5×10^5/well), were allowed to adhere to poly-L-lysine-precoated 96-well microplates. Following fixation with 4% paraformaldehyde, and washing with 0.1% Triton X-100 in PBS (T/PBS), endogenous peroxidase was quenched with 1% H2O2 in T/PBS, and reaction blocked for 1 h at 37° C. with 10% FBS in T/PBS. […] After washing, the cells were incubated for 1 h with the corresponding secondary antibody (goat anti-rabbit Ig(H+L)-HRP, goat anti-rat Ig(H+L)-HRP or goat anti-mouse Ig(F(ab′)2-specific)-HRP washed again and incubated for 15 min at room temperature in dark with 50 μl of a solution containing 0.4 mg/ml OPD (Sigma), 11.8 mg/ml Na2HPO4×2H2O, 7.3 mg/ml citric acid and 0.015% H2O2. The reaction was stopped with 3N HCl, and the absorbance was measured in a microplate reader at 492 nm in a Titertek microplate reader (Flow).
# [2] = system: spleen mononuclear cells (SMNC); assay: Ex vivo spontaneous adhesion assay (crystal violet) after in vivo treatment; design: species or system mouse; settings: SMNC from mice treated in vivo, FIG. 3B
# Method: (§1) Ex vivo lymphoproliferative response and adhesion assay. Spontaneous proliferation of SMNC was determined by incubation of cells (5×10^5/well) from each individual animal in 96-well microplates with 1 μCi ^3H-thymidine (^3H-TdR, ICN). Incorporated radioactivity was measured after 24 h in a Beckman liquid scintillation counter. The analysis of spontaneous adhesion of SMNC (2.5×10^5/well) to a monolayer of L929 fibroblasts or plastic was performed by using crystal violet assay as previously described (21). The absorbance corresponding to the number of adherent cells, was measured at 570 nm.
# [3] = system: spleen mononuclear cells (SMNC); assay: Ex vivo lymphoproliferative response (3H-thymidine incorporation) after in vivo treatment; design: species or system mouse; settings: CBA/H mice treated in vivo; splenocytes day 15 after MLD-STZ; FIG. 3A
# Method: as §1
# [4] = system: MLD-STZ-induced diabetic mice; assay: MLD-STZ-induced diabetes, weekly blood glucose, prophylactic treatment; format: in vivo, mouse; settings: CBA/H mice; prophylactic i.p. treatment; FIG. 2B
# Method: Diabetes induction and in vivo treatments. Diabetes was induced in adult male mice with multiple subtoxic doses of streptozotocin (MLD-STZ, 40 mg/kg body wt/day i.p. for five consecutive days) as described (21). The impact of polyclonal antibody against MIF was studied by i.p. injection of mice (5-10 per treatment group) with 5 mg/kg of rabbit IgG antibody against mouse […] on days −3, −1, 2 and 5 in relation to the first STZ dose. The effect of ISO-1 was studied by i.p. injection of the drug at a dose of 1 mg/mouse/day, for 14 consecutive days, starting 3 days prior to the first injection with STZ. Control animals received either nonimmune IgG or ISO-1 diluent (DMSO/H2O). Mice were monitored for diabetes by weekly measurement of blood glucose levels using a glucometer (Sensimac®, Imaco, Ludersdorf, Germany). Clinical diabetes was defined by hyperglycemia in non-fasted animals (blood glucose over 11.8 mmol/l).
# [5] = cells from mice treated in vivo
compound,measurement,setting,value
"COC(=O)C[C@@H]1CC(c2ccc(O)cc2)=NO1 (racemic) [ISO-1, (S,R)-3-(4-hydroxyphenyl)-4,5-dihydro-5-isoxazole acetic acid methyl ester]",intracellular expression of iNOS in macrophages,iNOS,significantly reduced
same,degree of islet infiltration (insulitis),[1],attenuated inflammation of the islets
same,MIF tautomerase and biological activity,MIF tautomerase,inhibits
same,TNF-α production by peritoneal macrophages,TNF-α; [5],down-regulated
same,TNF-α production by spleen MNC,TNF-α; [5],down-regulated
same,TNF-α production by pancreatic islet cells,TNF-α; islets from mice treated in vivo,down-regulated
same,spontaneous adhesion of SMNC to plastic,[2],significantly inhibited
same,adhesion of SMNC to fibroblasts,[2]; L929 fibroblasts,significantly inhibited
same,"SMNC proliferation, 3H-thymidine incorporation",[3],25637±2018 cpm
same,MLD-STZ-induced hyperglycemia (blood glucose levels),[4],remained euglycemic

# Source: patent US20080305118A1, “Treatment Of Type 1 Diabetes With Inhibitors Of Macrophage Migration Inhibitory Factor” (The Feinstein Institute for Medical Research, priority 2004, published 2008)
